Data: patent publication US20140194531A1, “HYDROXYTYROSOL BENEFITS MITOCHONDRIA” (DSM IP Assets B.V., priority 2008, published 2014)

What was measured:
[1] = system: mitochondrial electron transport complex I; assay: Mitochondrial complex I protein expression in adipocytes (Western blot); assay type: cell-based, murine; details: 3T3-L1 adipocytes, 48 hrs
Method: (§1) Murine 3T3-L1 pre-adipocytes (American Type Culture Collection) were cultured in Dulbecco's Modified Eagle's Medium (DMEM) supplemented with 10% fetal bovine serum and allowed to reach confluence. Differentiation of pre-adipocytes was initiated with 1 μM insulin, 0.25 μM dexamethasone and 0.5 mM 3-isobutyl-1-methylxanthine in DMEM, supplemented with 10% fetal bovine serum. After 48 h, the culture medium was replaced with DMEM supplemented with 10% fetal bovine serum and 1 μM insulin. The culture medium was changed every other day with DMEM containing 10% fetal bovine serum. […] After treatment, cells were washed twice with ice-cold PBS, lysed in sample buffer (62.5 mM Tris-Cl pH 6.8, 2% SDS, 5 mM DTT) at room temperature and vortexed. Cell lysates were then boiled for 5 minutes and cleared by centrifugation (13,000 rpm, 10 minutes at 4° C.). Protein concentration was determined using the Bio-Rad DC protein assay. The soluble lysates (10 μg per lane) were subjected to 10% SDS-PAGE, proteins were then transferred to nitrocellulose membranes and blocked with 5% non-fat milk/TBST for 1 h at room temperature. Membranes were incubated with primary antibodies directed against PPAR-y (1:1000), PGC-1α (1:1000), α-tubulin (1:10 000), Complex I (1:2000), Complex II (1:2000), Complex III (1:2000) and Complex V (1:2000) in 5% milk/TBST at 4° C. overnight. After washing membranes with TBST three times, membranes were incubated with horseradish peroxidase-conjugated secondary antibody for 1 h at room temperature. Western blots were developed using ECL (Roche Manheim, Germany) and quantified by scanning densitometry.

[2] = system: PGC-1α; assay: PGC-1α protein level in adipocytes (Western blot); assay type: cell-based, murine; details: 3T3-L1 adipocytes, 1.0 μM, maximum, p<0.05 vs. control
Method: as §1, with “Membranes were incubated with primary antibodies directed against PPAR-y (1:1000), PGC-1α (1:1000), α-tubulin (1:10 000), Complex I (1:2000), Complex II (1:2000), Complex III (1:2000) and Complex V (1:2000) in 5% milk/TBST at 4° C. overnight. After washing membranes with TBST three times, membranes were incubated with horseradish peroxidase-conjugated secondary antibody for 1 h at room temperature.” left out

[3] = system: mice (C57BL/6NCrl); assay: Maximal running performance on a treadmill (endurance); assay type: in vivo; details: olive extract containing 50% hydroxytyrosol, 50, 150 or 300 mg/kg body weight per day by gavage, 3 weeks
Source text: The purpose of the study was to determine the effect of hydroxytyrosol on maximal running performance on a treadmill.
In short, forty mice (C57BL/6NCrl; 8 wks old) were purchased from Charles River (Sulzfeld, Germany) and housed individually with free access to water and feed, with an alternating 12-hour light-dark cycle. The animals were fed a standard rodent diet (Ssniff R/M-H, Ext. n° V1536, Ssniff Ltd., Soest, Germany). After 2 weeks of adaptation to the diet the mice were randomized according to body weight into four experimental groups of 10 animals. The four groups were treated orally every morning for 3 weeks with either water (control group) or with an olive extract diluted to 0.2 ml with water and containing 50% hydroxytyrosol at doses of 50, 150, or 300 mg/kg body weight per day. There was no difference in feed consumption over the whole experiment. After 3 weeks of treatment the maximal running distance on a treadmill was measured. Statistical significance of the mean differences between dietary groups was tested by one-way analysis of variance (ANOVA). If significant differences were found, the Dunnett's test for multiple comparison was used to compare each group to the control group. P values less than 0.05 were considered significant.

SMILES: OCCc1ccc(O)c(O)c1 [hydroxytyrosol, 3,4-dihydroxyphenylethanol]
- mitochondrial electron transport complex I protein (vs. control) ([1]; 0.1 μM, p<0.05): 131±16%
- mitochondrial electron transport complex I protein (vs. control) ([1]; 1.0 μM, p<0.01): 163±31%
- mitochondrial electron transport complex I protein (vs. control) ([1]; 10.0 μM, p<0.05): 138±21%
- PGC-1α protein expression (PGC-1α:α-tubulin ratio, vs. control) [2]: 205±52%
- increase of endurance [3]: up to 50%
